In assay [1] the test system is LPS-induced TNFα in monocyte-derived macrophages (MdM). In words: MdM assay: LPS-triggered TNFα (ELISA). Type of assay: cell-based. The note with it: Homo sapiens, Macrophage, LPS 200 ng/mL, supernatant after 20 h. Here is the method: SIK inhibition inhibits TNFα and increases IL-10 release in LPS triggered monocyte-derived macrophages (MdM) and dendritic cells (MdDCs) (Clark et al. 2012; Sundberg et al. 2014; Ozanne et al. 2015). This assay evaluates illustrative compounds of the invention for their inhibition of LPS-induced TNFα and LPS triggered IL-10 secretion in monocyte-derived macrophages.
PBMCs are isolated from human blood samples (buffycoats). The buffy coat is aseptically transferred into a 50 mL Falcon tube, and diluted ½ in PBS. Falcon tubes are filled with 20 mL Lymphoprep™, on top of which 25 mL of the buffy coat is carefully added, tubes are centrifuged for 35 min at 400 g in temperature controlled centrifuge, without brake, at 25° C. PBMCs are aspirated from the white interface layer between sample and Lymphoprep™. PBMCs are washed five times in PBS. Cells are resuspended in RPMI 1640 complete medium supplemented with 10% FBS, 1% P/S, and cell density is determined using a hematologic analyzer (Sysmex XS-500i).
PBMCs are centrifuged at 300×g for 10 min and resuspended at a density of 1.0*10^7 cells/80 μL Miltenyi buffer (PBS, pH 7.4, 1% FBS, 2 mM EDTA).
Starting from this point of the protocol all steps are performed on ice. 20 μL of CD14+ micro-beads are added per 1.0*10^7 cells, the tube is mixed and incubated for 15 min in the fridge at 4° C. Cell suspension volume is adjusted to total volume of 100 mL using Miltenyi buffer, mixed gently and subsequently centrifuged for 10 min at 300×g. Supernatant is discarded and cell pellet is resuspended in 12 mL of Miltenyi buffer.
Four LS columns are placed in the MACS Separator (magnet) from Miltenyi Biotec, and are prewet by rinsing with 3 mL of MACS buffer per column. […]
The columns are removed from the magnets, and 5 mL of Miltenyi buffer are added to the column to flush out the CD14+ fraction by pushing the plunger into the column. […] The obtained cell pellet is resuspended in 10 mL RPMI w/o FBS, and cell density is determined using a hematologic analyser (Sysmex XS-500i). […]

Assay [2] deals with T1, SIK1 (Homo sapiens, UniProt P57059).
T1 construct: purchased Carna Biosciences 02-131
In words: ADP-Glo kinase assay, SIK1. Type of assay: biochemical. The settings on record: AMARA peptide 45 μM, 5 μM ATP, 120 min, read-out: SIM1 IC50. The source says:
(§1) The ADP-Glo™ kinase assay is a luminescent technology assay which measures the ADP formed from a kinase reaction. In this specific study, the kinase reactions consisted of the phosphorylation of the AMARA peptide substrate (SignalChem, Cat #A11-58) by SIK1 (Carma Biosciences, Cat #02-131), SIK2 (ThermoFisher Scientific, Cat #PV4792) or SIK3 (SignalChem, Cat #S12-11G-100). In a second step the kinase reactions are terminated and all the remaining ATP is depleted. In a final step the ADP is converted into ATP and this newly synthesized ATP is measured by using a luciferase/luciferin reaction. The generated light is measured using an Envision plate reader, wherein the luminescent signal obtained positively correlates with the kinase activity.
(§2) The test compounds are prepared as a serial dilution of 10 point dose responses with ⅕ dilution steps in 100% DMSO starting from 2 mM highest concentration, diluted 1/20 in water and […] is transferred to the assay plates (PerkinElmer Inc., Cat #6007290).
(§3) 1% DMSO and 10 μM staurosporine final concentrations are used as negative and positive controls.
(§4) 2 μL enzyme-substrate mixture is added to the assay plates.
(§5) The reaction is started by adding 2 μL diluted ATP on the assay plates. Plates are centrifuged for a few seconds at 1000 rpm and gently shaken for 2 min followed by an incubation at RT for 120 min.
(§6) The reactions are stopped and the unconsumed ATP is depleted by adding 5 μL ADP-Glo Reagent (Promega, Cat #V9121B) to the reaction. The plates are centrifuged for a few seconds at 1000 rpm and incubated at RT for […] (ATP depletion).
(§7) The ADP is converted to ATP and luciferase and luciferin is introduced to detect ATP by adding 10 μL Kinase Detection Reagent (Promega, Cat #V913B+V914r) to the reaction. The plates are centrifuged for a few seconds at 1000 rpm and incubated at RT for 30 min (ADP detection).
(§8) Luminescence is measured on an Envision plate reader (PerkinElmer Inc.).
(§9) Raw data are generated following the read-out performed on the TopCount, plotted to generate dose response curves to calculate percentage inhibition (PIN) and average IC50 for each SIK homologue which are reported in the table below.
For orientation: In ADP-Glo the light output rises with the ADP produced.

Assay [3] concerns the target T2, SIK2 (Homo sapiens, UniProt Q9H0K1).
T2 construct: purchased ThermoFisher Scientific PV4792
As to the kind of experiment: ADP-Glo kinase assay, SIK2. The assay is classed as biochemical. The settings on record: AMARA peptide 45 μM, 5 μM ATP, 120 min.
Text: as §1, §2, §3, §4, §5, §6, §7, §8, §9

Assay [4] deals with T3, SIK3 (Homo sapiens, UniProt Q9Y2K2).
T3 construct: purchased SignalChem S12-11G-100
In words: ADP-Glo kinase assay, SIK3. The settings on record: AMARA peptide 45 μM, 5 μM ATP, 120 min. The assay is classed as biochemical.
Text: as §1, §2, §3, §4, §5, §6, §7, §8, §9

We go through 3 compounds from patent publication US12606554B2, “Compounds and pharmaceutical compositions thereof for the treatment of diseases” (ONCO3R Therapeutics BV, priority 2019, dated 2026).

One may read the EC50 as the concentration giving half of the maximal effect. High values mean a less potent agent, low ones a more potent agent. Broadly, the IC50 is the concentration needed to halve the response being measured.

T1 sequence (P57059 whole entry): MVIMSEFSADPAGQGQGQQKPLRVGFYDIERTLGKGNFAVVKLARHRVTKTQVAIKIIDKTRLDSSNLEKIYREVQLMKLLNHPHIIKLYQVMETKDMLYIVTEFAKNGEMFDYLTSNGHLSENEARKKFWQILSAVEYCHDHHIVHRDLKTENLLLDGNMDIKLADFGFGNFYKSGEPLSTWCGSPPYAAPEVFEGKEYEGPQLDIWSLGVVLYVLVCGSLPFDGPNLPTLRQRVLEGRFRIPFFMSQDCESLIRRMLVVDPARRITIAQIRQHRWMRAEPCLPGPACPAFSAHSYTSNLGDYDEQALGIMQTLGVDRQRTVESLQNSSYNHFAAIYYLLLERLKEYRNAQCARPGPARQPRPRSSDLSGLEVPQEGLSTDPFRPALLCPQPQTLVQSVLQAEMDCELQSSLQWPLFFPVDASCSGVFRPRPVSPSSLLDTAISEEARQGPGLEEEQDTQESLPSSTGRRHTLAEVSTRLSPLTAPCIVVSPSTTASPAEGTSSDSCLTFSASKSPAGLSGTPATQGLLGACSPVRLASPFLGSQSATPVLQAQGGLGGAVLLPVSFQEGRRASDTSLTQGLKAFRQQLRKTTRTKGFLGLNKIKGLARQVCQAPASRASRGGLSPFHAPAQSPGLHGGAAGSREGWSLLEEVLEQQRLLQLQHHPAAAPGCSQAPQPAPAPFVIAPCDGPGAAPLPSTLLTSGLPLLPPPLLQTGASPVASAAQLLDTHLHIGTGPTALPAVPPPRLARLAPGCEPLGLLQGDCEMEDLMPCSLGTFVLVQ
T2 sequence (Q9H0K1 whole entry): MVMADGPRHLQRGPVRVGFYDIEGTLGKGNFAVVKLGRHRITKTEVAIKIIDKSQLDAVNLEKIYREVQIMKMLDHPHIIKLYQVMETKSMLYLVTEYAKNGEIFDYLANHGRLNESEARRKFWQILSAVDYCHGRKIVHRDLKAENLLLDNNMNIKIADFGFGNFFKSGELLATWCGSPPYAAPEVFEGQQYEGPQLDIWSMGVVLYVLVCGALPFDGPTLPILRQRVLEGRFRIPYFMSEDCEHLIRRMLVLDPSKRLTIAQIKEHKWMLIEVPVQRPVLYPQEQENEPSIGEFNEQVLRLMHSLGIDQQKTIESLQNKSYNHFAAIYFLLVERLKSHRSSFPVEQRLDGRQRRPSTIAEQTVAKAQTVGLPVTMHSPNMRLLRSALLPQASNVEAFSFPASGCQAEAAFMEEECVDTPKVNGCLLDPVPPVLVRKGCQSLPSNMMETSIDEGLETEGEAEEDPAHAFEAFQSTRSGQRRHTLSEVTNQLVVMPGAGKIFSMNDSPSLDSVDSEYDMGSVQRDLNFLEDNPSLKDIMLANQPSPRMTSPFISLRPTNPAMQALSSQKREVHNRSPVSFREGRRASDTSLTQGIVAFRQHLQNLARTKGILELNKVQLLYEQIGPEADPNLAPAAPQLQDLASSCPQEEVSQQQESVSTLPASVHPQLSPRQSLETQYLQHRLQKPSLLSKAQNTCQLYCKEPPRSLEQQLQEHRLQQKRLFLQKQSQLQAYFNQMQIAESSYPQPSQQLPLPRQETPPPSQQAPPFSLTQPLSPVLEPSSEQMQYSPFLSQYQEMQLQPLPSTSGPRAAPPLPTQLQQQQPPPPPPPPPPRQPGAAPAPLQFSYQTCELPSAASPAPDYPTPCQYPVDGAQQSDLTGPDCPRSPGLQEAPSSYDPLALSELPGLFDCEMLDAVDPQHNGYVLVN
T3 sequence (Q9Y2K2 whole entry): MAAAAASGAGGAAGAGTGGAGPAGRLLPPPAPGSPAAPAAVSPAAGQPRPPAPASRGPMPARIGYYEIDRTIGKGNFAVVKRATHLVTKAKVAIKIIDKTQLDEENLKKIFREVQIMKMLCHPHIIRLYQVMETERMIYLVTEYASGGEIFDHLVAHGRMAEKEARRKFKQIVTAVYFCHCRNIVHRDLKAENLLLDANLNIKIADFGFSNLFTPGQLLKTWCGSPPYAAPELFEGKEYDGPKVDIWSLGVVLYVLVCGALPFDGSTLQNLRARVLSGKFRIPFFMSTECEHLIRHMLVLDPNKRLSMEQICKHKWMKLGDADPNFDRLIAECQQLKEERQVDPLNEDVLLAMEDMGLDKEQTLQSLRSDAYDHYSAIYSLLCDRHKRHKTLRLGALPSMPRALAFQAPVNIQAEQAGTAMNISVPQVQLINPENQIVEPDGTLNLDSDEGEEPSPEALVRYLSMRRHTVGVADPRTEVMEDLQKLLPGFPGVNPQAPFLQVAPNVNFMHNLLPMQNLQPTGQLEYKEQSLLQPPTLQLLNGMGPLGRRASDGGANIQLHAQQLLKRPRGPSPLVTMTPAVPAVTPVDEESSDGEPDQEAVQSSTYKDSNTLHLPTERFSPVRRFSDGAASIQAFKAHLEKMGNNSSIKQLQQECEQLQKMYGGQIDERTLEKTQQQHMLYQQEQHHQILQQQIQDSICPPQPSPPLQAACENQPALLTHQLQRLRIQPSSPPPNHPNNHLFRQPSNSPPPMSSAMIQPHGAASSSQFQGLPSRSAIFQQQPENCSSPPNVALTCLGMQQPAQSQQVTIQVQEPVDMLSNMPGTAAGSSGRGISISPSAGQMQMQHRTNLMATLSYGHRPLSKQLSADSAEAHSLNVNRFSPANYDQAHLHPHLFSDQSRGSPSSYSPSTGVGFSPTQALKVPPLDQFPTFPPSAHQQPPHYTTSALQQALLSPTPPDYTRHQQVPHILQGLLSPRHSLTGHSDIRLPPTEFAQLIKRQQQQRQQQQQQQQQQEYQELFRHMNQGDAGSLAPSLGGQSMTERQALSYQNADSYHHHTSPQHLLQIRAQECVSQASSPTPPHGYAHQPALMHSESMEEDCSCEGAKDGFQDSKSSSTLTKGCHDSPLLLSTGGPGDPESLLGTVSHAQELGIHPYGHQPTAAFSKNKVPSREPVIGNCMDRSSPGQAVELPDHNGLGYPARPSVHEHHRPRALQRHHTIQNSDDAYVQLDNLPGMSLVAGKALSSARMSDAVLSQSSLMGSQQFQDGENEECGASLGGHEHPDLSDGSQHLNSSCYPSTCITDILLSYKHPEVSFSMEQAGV

Compound `COc1cc(-c2cnn3cc(OC(C)(C)CO)ccc23)cc(OC(F)F)c1C(=O)N[C@@H]1C[C@@H]1F` [Cpd 2, 2-(difluoromethoxy)-N-[(1R,2S)-2-fluorocyclopropyl]-4-[6-(2-hydroxy-1,1-dimethyl-ethoxy)pyrazolo[1,5-a]pyridin-3-yl]-6-methoxy-benzamide] showed an EC50 in assay [1] of 100 to 1000 nM. The IC50 is above 500 nM in assay [2], 100 to 500 nM in assay [3] and 0.01 to 10 nM in assay [4].

In turn, `COc1cc(-c2cnn3cc(OC(C)(C)CN4CCOCC4)ccc23)cc(OC(F)F)c1C(=O)N[C@@H]1C[C@@H]1F` [Cpd 3, 2-(difluoromethoxy)-4-[6-(1,1-dimethyl-2-morpholino-ethoxy)pyrazolo[1,5-a]pyridin-3-yl]-N-[(1R,2S)-2-fluorocyclopropyl]-6-methoxy-benzamide] gave an EC50 in assay [1] of 100 to 1000 nM. Moreover, the IC50 in assay [2] was above 500 nM; in assay [3], 100 to 500 nM; in assay [4] it was 10 to 100 nM.

Regarding `COc1cc(-c2cnn3cc(OCCN4CCOCC4)ccc23)cc2c1C(=O)N(CC(F)(F)F)CC2` [Cpd 1, 8-methoxy-6-[6-(2-morpholinoethoxy)pyrazolo[1,5-a]pyridin-3-yl]-2-(2,2,2-trifluoroethyl)-3,4-dihydroisoquinolin-1-one], in assay [1], the 50% effective concentration (EC50) lay within 100 to 1000 nM. For the same compound, the figures for the IC50 in assay [2], in assay [3] and in assay [4] were 100 to 500 nM, 0.01 to 10 nM and 0.01 to 10 nM, respectively.
